Assay results taken from the METLIN SMRT retention time set (Domingo-Almenara et al. 2019).

assay: gradient 5% acetonitrile 3 min, to 50% in 2 min, to 85% in 15 min, held 3 min, 100 µL/min; conditions: column: Zorbax Extend-C18 2.1 x 50 mm; eluents: water / acetonitrile, 0.1% formic acid
Outline: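 Over 3 months, pure standards in mixtures of ~100 molecules were run by HPLC coupled to a quadrupole time-of-flight mass spectrometer in positive and negative ionization mode. The column was a Zorbax Extend-C18 (2.1 × 50 mm, 1.8 μm) at 100 μL/min, eluted with water and acetonitrile each holding 0.1% formic acid, with 40 μL dead and 900 μL dwell volumes. Retention time was determined from adduct peaks chosen by software and checked manually.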

| SMILES | RP-LC retention time |
| --- | --- |
| Cc1cccc(-c2noc(Cn3ccn(Cc4ccc(Cl)cc4)c(=O)c3=O)n2)c1 | 960 s |
| Cc1cc(-c2c(C)sc(C)c2S(=O)(=O)Nc2ccc(C)c(F)c2)n[nH]1 | 1080 s |
| NC(=O)C1CCc2sc(C(=O)N3CCCCCC3)cc2C1 (centres undefined) | 663 s |
| Cc1ccc(-n2nc(N3CCCN(S(=O)(=O)c4ccccc4)CC3)ccc2=O)cc1C | 947 s |
| Cc1nn(-c2nc(CC(=O)N(CCO)Cc3ccccc3)cs2)c(C)c1Cl | 943 s |
| CCC1=C(c2ccc(C)cc2)S(=O)(=O)N=C1N1CCC(C(=O)N(C)Cc2ccco2)CC1 | 894 s |
| CC(C)CC(=O)N1CC(c2nc(-c3ccc(F)cc3)no2)C2(CCOCC2)C1 (centres undefined) | 926 s |
| CC(C)(C)c1ccc(S(=O)(=O)N2CCc3nc[nH]c3C2)cc1 | 683 s |
| COc1cccc(C(=O)N2CCC3(CC2)NCc2ccccc2-n2ccnc23)c1 | 606 s |
| Cc1noc(-c2nn(C)c3c2CN(C(=O)NC(C)(C)C)CC3)n1 | 680 s |
| CCC(=O)N1CCc2cc(N3CC(C(=O)N4CCN(C)CC4)CC3=O)ccc21 (centres undefined) | 563 s |
| O=C(O)c1cn(Cc2ccccn2)nc1S(=O)(=O)N1CCc2ccccc2C1 | 690 s |
| O=C(c1cc(-c2ccc(Br)cc2)n[nH]1)N1CCN(c2ccc(N3CCOCC3)nn2)CC1 | 649 s |
| CCOc1ccc(S(=O)(=O)N2CCC(c3noc(-c4cccc(OC)c4)n3)CC2)cc1 | 1150 s |
| Cn1c(=O)c2c3c(cnc2n(C)c1=O)C(=O)CCC3 | 704 s |
| O=C(CCCc1nc2cccnc2n1Cc1ccccc1)N1CCN(c2ccccn2)CC1 | 603 s |
| O=C(Cn1cccc1-c1nc(-c2ccc3c(c2)OCO3)no1)Nc1cc(F)cc(F)c1 | 1060 s |
| O=C(c1ccc(Cl)cc1)N1CCN=C1N1CCCCC1 | 640 s |
| Cc1nn(Cc2cccc(C(=O)Nc3nc(-c4ccccc4)cs3)c2)c(C)c1Cl | 1160 s |
| COc1ccc(-c2nc(NCCN3CCC(C)CC3)c3ccccc3n2)cc1 | 580 s |

Further lines, results first:

| RP-LC retention time | SMILES |
| --- | --- |
| 676 s | Nc1cc(C2CCN(C(=O)Cc3ccccc3F)CC2)no1 |
| 612 s | CC(C)N1CCC(CC(=O)N2CCc3c(c(-c4nc(C5CC5)no4)nn3C)C2)CC1 |
| 882 s | Cc1nc(-c2cc(S(=O)(=O)N3CCC(C(=O)NCc4cccs4)CC3)c(C)s2)no1 |
| 886 s | CCCC(CCC)C(=O)NCCc1c[nH]c2cc(OC)ccc12 |
| 964 s | O=C1Nc2ccc(Br)cc2/C1=C/C(=O)c1ccccc1 |
| 645 s | Cc1cccc(Nc2nc(C)c(C(=O)NC3CCN(Cc4ccccc4)CC3)s2)n1 |
| 1120 s | Cn1nccc1-c1cccc(-c2noc(-c3ccc(F)cc3F)n2)c1 |
| 719 s | Clc1ccccc1-n1ncc2c(NCc3ccco3)ncnc21 |
| 1040 s | CCc1nc2cc(-c3noc(-c4cccc5[nH]ccc45)n3)ccc2o1 |
| 550 s | O=C(N[C@@H]1CN(c2ccncn2)C[C@H]1CO)C1CCCC1 |
| 753 s | COc1ccc(CNC(=O)C2CCCN(c3nnc4ccc(Cl)cn34)C2)c(OC)c1 (centres undefined) |
| 723 s | COc1cc(=O)n2c(c1C(=O)NCCC1=CCCCC1)CCCC2 |
| 928 s | O=c1n(Cc2cccc(Br)c2)nc2ccc(S(=O)(=O)N3CCCC3)cn12 |
| 578 s | Cc1nn(-c2ccc(N3CCOCC3)nn2)c(C)c1CCC(=O)N1CCN(c2ccccn2)CC1 |
| 849 s | O=C(CCCc1ccccc1)Nc1cnn(-c2ncc(N3CCCC3)cn2)c1 |
| 801 s | COc1ccc(C(=O)Nc2nc(-c3ccc4c(c3)NC(=O)CO4)cs2)cc1OC |
| 1070 s | O=c1c2sccc2n(Cc2nc(-c3cccc(C(F)(F)F)c3)no2)c(=O)n1-c1ccc(F)cc1 |
| 665 s | C[C@H](CCC(=O)NCCS(=O)(=O)O)[C@H]1CC[C@H]2[C@@H]3[C@H](O)C[C@@H]4C[C@H](O)CC[C@]4(C)[C@H]3C[C@H](O)[C@]12C |
| 732 s | CCOc1ccc(NC(=O)Cn2c(N3CCOCC3)nc(CC)cc2=O)cc1 |
| 911 s | COc1ccc(-c2cc(C(=O)Nc3ccccc3)nn2C2CCS(=O)(=O)C2)cc1 (centres undefined) |
| 617 s | COc1cc(C(=O)NCC(c2ccc3c(c2)OCO3)N2CCOCC2)cc(OC)c1OC (centres undefined) |
| 651 s | Cc1ccccc1-c1nocc1CCC(=O)O |
| 875 s | COC(=O)c1ccc2c(=O)n(-c3ccc4c(c3)OCO4)c(N3CCOCC3)nc2c1 |
| 891 s | CS(=O)(=O)c1ccc(C(=O)Nc2ccc(Cl)c(-c3ccccn3)c2)c(Cl)c1 |
